Laboratory results as given in ChEMBL document CHEMBL3885861, “Open TG-GATES”.

Organism: Rattus norvegicus
Assay: Open TG-GATES - Regimen: Daily Repeat
Type: toxicity, organism-based, Sprague-Dawley
Design: regimen Daily Repeat, gender Male, age 6 weeks
Details: in vivo, po, 100 mg/kg, route gavage, dose level Low; for APTT / Bas / Eos / Fbg / Hb / Ht / Lym / MCH / MCHC / MCV / Mono / Neu / PT / Plat / RBC / Ret / WBC: tissue Blood; for KIDNEY_L / KIDNEY_R / KIDNEY_TOTAL: tissue Kidney; for LIVER: tissue Liver; for A/G / ALP / ALT / AST / BUN / CRE / Ca / Cl / DBIL / GLC / IP / K / LDH / Na / PL / RALB / TBIL / TC / TG / TP / gamma-GTP: tissue Plasma

## O=C(OC[C@H]1O[C@@H](OC(=O)c2cc(O)c(O)c(OC(=O)c3cc(O)c(O)c(O)c3)c2)[C@H](OC(=O)c2cc(O)c(O)c(OC(=O)c3cc(O)c(O)c(O)c3)c2)[C@@H](OC(=O)c2cc(O)c(O)c(OC(=O)c3cc(O)c(O)c(O)c3)c2)[C@@H]1OC(=O)c1cc(O)c(O)c(OC(=O)c2cc(O)c(O)c(O)c2)c1)c1cc(O)c(O)c(OC(=O)c2cc(O)c(O)c(O)c2)c1 [TANNIC ACID]
72 h, time 3 day
  TERMINAL_BW: 221.9 g
  APTT: 16.9 s
  Bas: 0%
  Eos: 1%
  Fbg: 234.4 mg/dL
  Hb: 13.2 g/dL
  Ht: 39.2%
  Lym: 72.6%
  MCH: 22.3 pg
  MCHC: 33.6%
  MCV: 66.4 fL
  Mono: 12.2%
  Neu: 14.4%
  PT: 11.5 s
  Plat: 111.4 x10_4/uL
  RBC: 590.2 x10_4/ul
  Ret: 8.8%
  WBC: 90.6 x10_2/uL
  KIDNEY_L: 1 g
  KIDNEY_R: 1 g
  KIDNEY_TOTAL: 2 g
  LIVER: 11.1 g
  A/G: 2.3
  ALP: 864 IU/L
  ALT: 33.4 IU/L
  AST: 61.4 IU/L
  BUN: 18.8 mg/dL
  CRE: 0.5 mg/dL
  Ca: 11 mg/dL
  Cl: 104.2 meq/L
  DBIL: 0 mg/dL
  GLC: 204.8 mg/dL
  IP: 8.6 mg/dL
  K: 4.8 meq/L
  LDH: 68.4 IU/L
  Na: 139.8 meq/L
  PL: 154.6 mg/dL
  RALB: 4 g/dL
  TBIL: 0.3 mg/dL
  TC: 84.6 mg/dL
  TG: 100.8 mg/dL
  TP: 5.7 g/dL
  gamma-GTP: 1.2 IU/L
[…], time 7 day
  TERMINAL_BW: 249.2 g
  APTT: 16.3 s
  Bas: 0%
  Eos: 1%
  Fbg: 221.6 mg/dL
  Hb: 13.4 g/dL
  Ht: 40.3%
  Lym: 74.8%
  MCH: 21 pg
  MCHC: 33.3%
  MCV: 63.3 fL
  Mono: 7.4%
  Neu: 16.8%
  PT: 11 s
  Plat: 122.5 x10_4/uL
  RBC: 638.6 x10_4/ul
  Ret: 6.5%
  WBC: 119 x10_2/uL
  KIDNEY_L: 1 g
  KIDNEY_R: 1 g
  KIDNEY_TOTAL: 2.1 g
  LIVER: 12.2 g
  A/G: 1.5
  ALP: 796.4 IU/L
  ALT: 32.2 IU/L
  AST: 62.6 IU/L
  BUN: 18.4 mg/dL
  CRE: 0.5 mg/dL
  Ca: 11.1 mg/dL
  Cl: 103.2 meq/L
  DBIL: 0.004 mg/dL
  GLC: 207.4 mg/dL
  IP: 8.3 mg/dL
  K: 4.3 meq/L
  LDH: 87.6 IU/L
  Na: 138 meq/L
  PL: 160.8 mg/dL
  RALB: 3.6 g/dL
  TBIL: 0.4 mg/dL
  TC: 84.2 mg/dL
  TG: 116.2 mg/dL
  TP: 6 g/dL
  gamma-GTP: 1.6 IU/L
[…], time 14 day
  TERMINAL_BW: 296.1 g
  APTT: 16.7 s
  Bas: 0%
  Eos: 1%
  Fbg: 261 mg/dL
  Hb: 14.3 g/dL
  Ht: 42.9%
  Lym: 74.5%
  MCH: 20.9 pg
  MCHC: 33.4%
  MCV: 62.6 fL
  Mono: 6.8%
  Neu: 18%
  PT: 11.5 s
  Plat: 129.4 x10_4/uL
  RBC: 685.8 x10_4/ul
  Ret: 4.6%
  WBC: 136 x10_2/uL
  KIDNEY_L: 1.1 g
  KIDNEY_R: 1.2 g
  KIDNEY_TOTAL: 2.3 g
  LIVER: 13.7 g
  A/G: 1.8
  ALP: 726.5 IU/L
  ALT: 32 IU/L
  AST: 58.2 IU/L
  BUN: 18.5 mg/dL
  CRE: 0.6 mg/dL
  Ca: 10.9 mg/dL
  Cl: 102.8 meq/L
  DBIL: 0.01 mg/dL
  GLC: 207.5 mg/dL
  IP: 8.3 mg/dL
  K: 4.2 meq/L
  LDH: 77 IU/L
  Na: 140 meq/L
  PL: 140.2 mg/dL
  RALB: 3.9 g/dL
  TBIL: 0.3 mg/dL
  TC: 69.5 mg/dL
  TG: 100.2 mg/dL
  TP: 6.1 g/dL
  gamma-GTP: 1.8 IU/L
[…], time 28 day
  TERMINAL_BW: 380.6 g
  APTT: 15.9 s
  Bas: 0%
  Eos: 1.2%
  Fbg: 230 mg/dL
  Hb: 15.1 g/dL
  Ht: 45%
  Lym: 80.4%
  MCH: 19.9 pg
  MCHC: 33.5%
  MCV: 59.5 fL
  Mono: 5.8%
  Neu: 12.4%
  PT: 12 s
  Plat: 116.4 x10_4/uL
  RBC: 757.4 x10_4/ul
  Ret: 2.8%
  WBC: 142.1 x10_2/uL
  KIDNEY_L: 1.4 g
  KIDNEY_R: 1.5 g
  KIDNEY_TOTAL: 2.9 g
  LIVER: 15.5 g
  A/G: 1.6
  ALP: 659.6 IU/L
  ALT: 34 IU/L
  AST: 64.6 IU/L
  BUN: 20.2 mg/dL
  CRE: 0.6 mg/dL
  Ca: 10.8 mg/dL
  Cl: 106.4 meq/L
  DBIL: 0.006 mg/dL
  GLC: 196.8 mg/dL
  IP: 7.4 mg/dL
  K: 4.3 meq/L
  LDH: 78.2 IU/L
  Na: 139.4 meq/L
  PL: 145.8 mg/dL
  RALB: 3.8 g/dL
  TBIL: 0.3 mg/dL
  TC: 70.6 mg/dL
  TG: 108 mg/dL
  TP: 6.2 g/dL
  gamma-GTP: 2 IU/L
